# Target: T1, human NEP (Homo sapiens, UniProt P08473)
# T1 construct: purchased R&D Systems, Minneapolis, Minn; 1182-ZN
# Assay: In vitro enzyme inhibition assay, inhibitor potency at human NEP
# Format: biochemical
# Settings: pKi values at human NEP; recombinant human NEP, fluorogenic peptide substrate 10 μM, 37° C.
# Description: The inhibitory activities of compounds at human and rat neprilysin (EC 3.4.24.11; NEP) and human angiotensin converting enzyme (ACE) were determined using in vitro assays as described below.
# Recombinant human NEP and recombinant human ACE were obtained commercially (R&D Systems, Minneapolis, Minn., catalog numbers 1182-ZN and 929-ZN, respectively). The fluorogenic peptide substrate Mca-D-Arg-Arg-Leu-Dap-(Dnp)-OH (Medeiros et al. (1997) Braz. J. Med. Biol. Res. 30:1157-62; Anaspec, San Jose, Calif.) and Abz-Phe-Arg-Lys(Dnp)-Pro-OH (Araujo et al. (2000) Biochemistry 39:8519-8525; Bachem, Torrance, Calif.) were used in the NEP and ACE assays respectively.
# The assays were performed in 384-well white opaque plates at 37° C. using the fluorogenic peptide substrates at a concentration of 10 μM in Assay Buffer (NEP: 50 mM HEPES, pH 7.5, 100 mM NaCl, 0.01% polyethylene glycol sorbitan monolaurate (Tween-20), 10 μM ZnSO4; ACE: 50 mM HEPES, pH 7.5, 100 mM NaCl, 0.01% Tween-20, 1 μM ZnSO4).
# Test compounds were assayed over the range of concentrations from […] to 20 μM. Test compounds were added to the enzymes and incubated for 30 minute at 37° C. prior to initiating the reaction by the addition of substrate. Reactions were terminated after 20 minutes of incubation at 37° C. by the addition of glacial acetic acid to a final concentration of 3.6% (v/v).
# Plates were read on a fluorometer with excitation and emission wavelengths set to 320 nm and 405 nm, respectively. Inhibition constants were obtained by nonlinear regression of the data using the equation (GraphPad Software, Inc., San Diego, Calif.): v=v0/[1+(I/K′)] where v is the reaction rate, v0 is the uninhibited reaction rate, I is the inhibitor concentration and K′ is the apparent inhibition constant.
# Compounds of the invention were tested in this assay and found to have pKi values at human NEP as follows.
# T1 sequence (P08473 whole entry): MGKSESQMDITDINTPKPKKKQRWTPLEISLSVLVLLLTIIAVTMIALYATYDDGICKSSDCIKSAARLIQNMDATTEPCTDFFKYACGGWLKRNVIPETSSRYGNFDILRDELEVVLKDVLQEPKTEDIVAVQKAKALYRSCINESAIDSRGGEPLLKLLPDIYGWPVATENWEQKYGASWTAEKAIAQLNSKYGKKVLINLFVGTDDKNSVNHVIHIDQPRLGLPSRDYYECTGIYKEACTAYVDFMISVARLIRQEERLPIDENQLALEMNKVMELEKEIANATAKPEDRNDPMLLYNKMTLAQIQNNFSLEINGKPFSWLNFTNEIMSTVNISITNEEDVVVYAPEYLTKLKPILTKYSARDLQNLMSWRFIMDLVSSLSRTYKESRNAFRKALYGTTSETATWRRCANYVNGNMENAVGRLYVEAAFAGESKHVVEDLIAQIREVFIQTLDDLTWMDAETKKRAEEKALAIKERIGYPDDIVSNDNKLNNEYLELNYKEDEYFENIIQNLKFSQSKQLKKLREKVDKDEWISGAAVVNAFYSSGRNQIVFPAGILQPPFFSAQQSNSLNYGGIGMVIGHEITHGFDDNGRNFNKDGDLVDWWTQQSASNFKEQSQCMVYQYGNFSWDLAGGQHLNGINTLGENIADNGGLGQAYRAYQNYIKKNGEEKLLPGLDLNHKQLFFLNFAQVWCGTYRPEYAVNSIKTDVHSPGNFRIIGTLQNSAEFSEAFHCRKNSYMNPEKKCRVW
row,Ki,Structure (SMILES)
1,≤ 1 nM,"O=C(N[C@H](Cc1ccccc1Cl)[C@@H](O)C(=O)O)c1ccnc(-c2ccccc2C(=O)O)c1 [Example 2-2, 2-{4-[(1R,2R)-2-Carboxy-1-(2-chloro-benzyl)-2-hydroxy-ethylcarbamoyl]-pyridin-2-yl}-benzoic acid]"
2,1.26 to 10 nM,"O=C(N[C@H](Cc1ccccc1)[C@@H](O)C(=O)O)c1ccc(-c2ccccc2C(=O)O)nc1 [Example 5-21, 2-[5-((1R,2R)-1-Benzyl-2-carboxy-2-hydroxy-ethylcarbamoyl)-pyridin-2-yl]-benzoic acid]"
3,12.6 to 100 nM,"CCCc1nc2c(C)cc(C(=O)N[C@H](Cc3ccccc3)[C@@H](O)C(=O)O)cc2n1Cc1cccnc1 [Example 5-3, (2R,3R)-2-Hydroxy-3-[(7-methyl-2-propyl-3-pyridin-3-ylmethyl-3H-benzoimidazole-5-carbonyl)-amino]-4-phenyl-butyric acid]"
4,1.26 to 10 nM,"O=C(N[C@H](Cc1ccccc1Cl)[C@@H](O)C(=O)O)c1cc(-c2ccccc2Cl)no1 [Example 2-12, (2R,3R)-4-(2-Chloro-phenyl)-3-{[3-(2-chloro-phenyl)-isoxazole-5-carbonyl]-amino}-2-hydroxy-butyric acid]"
5,12.6 to 100 nM,"O=C(N[C@H](Cc1ccccc1Cl)[C@@H](O)C(=O)O)c1cnc(-c2ccccc2)o1 [Example 2-18, (2R,3R)-4-(2-Chloro-phenyl)-2-hydroxy-3-[(2-phenyl-oxazole-5-carbonyl)-amino]-butyric acid]"
6,12.6 to 100 nM,"O=C(N[C@H](Cc1ccccc1)[C@@H](O)C(=O)O)c1ccc(-c2ccccc2C(=O)O)cn1 [Example 5-24, 2-[6-((1R,2R)-1-Benzyl-2-carboxy-2-hydroxy-ethylcarbamoyl)-pyridin-3-yl]-benzoic acid]"
7,1.26 to 10 nM,"Cc1cc(C(=O)N[C@H](Cc2ccccc2Cl)[C@@H](O)C(=O)O)cc(-c2ccccc2C(=O)O)n1 [Example 2-4, 2-{4-[(1R,2R)-2-Carboxy-1-(2-chloro-benzyl)-2-hydroxy-ethylcarbamoyl]-6-methyl-pyridin-2-yl}-benzoic acid]"

# From patent US9771337B2, “Neprilysin inhibitors” (THERAVANCE BIOPHARMA R&D IP, LLC, priority 2011, dated 2017)
